We go through 5 molecules from US7820876B2 (priority 2000, dated 2010).

Entries after “also recorded” stand apart in the source; their conditions may differ.

Assay [1] deals with nicotinic receptors in brain. The class given is binding, mouse.
Assay [2] concerns nicotinic receptors of striatum membrane preparations. In kind it is binding, mouse.
Assay [3] relates to nicotinic acetylcholine receptors (nAChR) of striatal synaptosomes. In kind it is biochemical, mouse.
The subject of a further assay is cFos expression. The note with it: mouse, in vivo.
Assay [4] deals with nAChRs containing the α6 subunit (brain sections). The class given is binding, mouse.

For `O=c1cccc2n1C[C@@H]1CNC[C@H]2C1` [cytisine], the “number of sites with high affinity for the ligand” value (shortened to “number of sites with high affinity”) in assay [1] is recorded as “reduction; also recorded: no other difference could be detected”.
For `Clc1ccc(C2CC3CCC2N3)cn1` (stereo not drawn) [epibatidine], in assay [1], the “number of sites with high affinity” value was “reduction; also recorded: no other difference could be detected”. In assay [2], the “total number of epibatidine sites” value was “could not show a reduction”.
As for `CN1CCCC1c1cccnc1` (stereo not drawn) [nicotine], in assay [3], the “change in the affinity of the dopamine release response to nicotine (dose-response curve)” value is given as “loss of affinity of an order of magnitude; also recorded: drop of one order of magnitude”, the “dopamine release peak induced by nicotine” value is given as 50%, the “effect of nicotine on dopamine release” value is listed as “completely absent” and the “increase in dopamine release over the basal level” value was “about 100%”. Moreover, the “number of sites with high affinity” value in assay [1] is “reduction; also recorded: no other difference could be detected”. The “activation of cFos expression in response to nicotine” value in the assay on cFos expression was “absence of activation”.
α-Conotoxin MII [αCtxMII]: the “DA release peak induced by nicotine above the basal level in presence of αCtxMII” value in assay [3] is 50%. In assay [4], the “binding sites on brain sections” value was “presence of binding sites in three major anatomical systems” and the “high affinity binding sites for the toxin” value is “complete disappearance”. Moreover, in assay [2], the “sites sensitive to αCtxMII as share of the total number of epibatidine sites” value is on record as 20%; the “sites with high and low affinity for αCtxMII” value is “total disappearance”.
Consider α-bungarotoxin, for which the “ligand bond (distribution of binding sites) in mutants versus Wt” value in assay [1] was “not modified”.
